Results on 18 compounds are retold here after PubChem BioAssay AID328 (DTP/NCI, 2004).

Where “and” joins values, the source holds several entries; their conditions need not be identical. Identical values can stand only once. Inconclusive results and toxic doses are left out.

For this test, the system named is BDF1 mice, P388 leukemia ip, median survival T/C. In words: NCI In Vivo Anticancer Drug Screen. Data for tumor model P388 Leukemia (intraperitoneal) in B6D2F1 (BDF1) mice. Particulars: endpoint: median survival time, higher = longer survival. The gist of the method: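 Antitumour effect was judged in vivo: survival in drug-treated mice, normalised to that of vehicle-dosed controls, gives the reported T/C.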

The mark [1] stands for this setting: dose: 50.0 mg/kg/injection, schedule: Q01DX009 (ip), vehicle: saline with Tween-80.
The mark [2] stands for this setting: dose: 100.0 mg/kg/injection, schedule: Q04DX003 (ip), vehicle: saline with Tween-80.
Setting [3] is: dose: 200.0 mg/kg/injection, schedule: Q04DX003 (ip), vehicle: saline with Tween-80.
[4] abbreviates: dose: 400.0 mg/kg/injection, schedule: Q04DX003 (ip), vehicle: saline with Tween-80.
Where [5] appears, read: dose: 100.0 mg/kg/injection, schedule: Q04DX003 (ip), vehicle: Klucel (hydroxypropylcellulose) (HPC).
Setting [6] is: dose: 12.5 mg/kg/injection, schedule: Q01DX009 (ip), vehicle: saline with Tween-80.
Setting [7] is: dose: 100.0 mg/kg/injection, schedule: Q01DX009 (ip), vehicle: saline with Tween-80.
The mark [8] stands for this setting: dose: 200.0 mg/kg/injection, schedule: Q01DX009 (ip), vehicle: saline with Tween-80.
[9] abbreviates: dose: 50.0 mg/kg/injection, schedule: Q01DX009 (ip), vehicle: saline.
The mark [10] stands for this setting: dose: 100.0 mg/kg/injection, schedule: Q01DX009 (ip), vehicle: saline.
Setting [11] is: dose: 12.5 mg/kg/injection, schedule: Q01DX009 (ip), vehicle: saline.
The mark [12] stands for this setting: dose: 25.0 mg/kg/injection, schedule: Q01DX009 (ip), vehicle: saline.
Where [13] appears, read: dose: 400.0 mg/kg/injection, schedule: Q01DX009 (ip), vehicle: saline with Tween-80.

Consider `CCN(CCO)CC(C)Nc1ccc([N+](=O)[O-])c2sc3ccccc3c(=O)c12` (stereo unspecified), for which the T/C runs as follows: (dose: 33.0 mg/kg/injection, schedule: Q01DX009 (ip), vehicle: saline with Tween-80) 195 % of control; under setting [1], 177 % of control; (dose: 66.0 mg/kg/injection, schedule: Q04DX003 (ip), vehicle: saline with Tween-80) 162 % of control; (dose: 75.0 mg/kg/injection, schedule: Q01DX009 (ip), vehicle: saline with Tween-80) 95 % of control; under setting [2], 191 % of control and 200 % of control; (dose: 150.0 mg/kg/injection, schedule: Q04DX003 (ip), vehicle: saline with Tween-80) 220 % of control. Moreover, the T/C was 113 % of control under setting [3] and 95 % of control under setting [4].
`Nc1c(C(=O)O)ccc2c1C(=O)c1ccccc1C2=O`: the T/C is 87 % of control (dose: 44.0 mg/kg/injection, schedule: Q04DX003 (ip), vehicle: gum acacia); 92 % of control (dose: 50.0 mg/kg/injection, schedule: Q01DX009 (ip), vehicle: gum acacia); 115 % of control (dose: 67.0 mg/kg/injection, schedule: Q04DX003 (ip), vehicle: Klucel (hydroxypropylcellulose) (HPC)); 100 % of control (dose: 67.0 mg/kg/injection, schedule: Q04DX003 (ip), vehicle: gum acacia); 103 % of control (dose: 100.0 mg/kg/injection, schedule: Q01DX009 (ip), vehicle: gum acacia); 120 % of control under setting [5]. Moreover, the T/C (dose: 100.0 mg/kg/injection, schedule: Q04DX003 (ip), vehicle: gum acacia) is 87 % of control; the T/C (dose: 150.0 mg/kg/injection, schedule: Q04DX003 (ip), vehicle: Klucel (hydroxypropylcellulose) (HPC)) is 110 % of control; the T/C (dose: 150.0 mg/kg/injection, schedule: Q04DX003 (ip), vehicle: gum acacia) was 116 % of control.
For the compound `ClCCN(CCCl)c1ccc(C=Nc2ccc(/C=C\c3ccncc3)cc2)cc1`, the T/C under setting [6] was 115 % of control; the T/C (dose: 25.0 mg/kg/injection, schedule: Q01DX009 (ip), vehicle: saline with Tween-80) is 101 % of control; the T/C under setting [1] is 98 % of control; the T/C under setting [7] is 89 % of control.
Turning to `CCCCN(CCCC)CCC(O)c1cc(-c2ccc(C(F)(F)F)cc2)nc(C(F)(F)F)c1` (stereo unspecified), the T/C under setting [1] was 106 % of control.
Turning to `CC(=O)C1=CN(Cc2ccccc2)C(O)CC1C(N)=O` (stereo unspecified), the T/C reads like this: under setting [1], 101 % of control; under setting [7], 109 % of control; under setting [8], 115 % of control.
Turning to `O=S(=O)(CS(=O)(=O)C(F)(F)C(F)(F)C(F)(F)C(F)(F)F)C(F)(F)C(F)(F)C(F)(F)C(F)(F)F`, the T/C reads like this: under setting [9], 114 % of control; under setting [10], 114 % of control; (dose: 200.0 mg/kg/injection, schedule: Q01DX009 (ip), vehicle: saline) 106 % of control.
Turning to `Nc1cc(Cl)c2cccnc2c1O`, the T/C by setting is: under setting [11], 111 % of control and 115 % of control; (dose: 22.0 mg/kg/injection, schedule: Q01DX009 (ip), vehicle: saline) 118 % of control; under setting [12], 104 % of control and 117 % of control; (dose: 44.0 mg/kg/injection, schedule: Q04DX003 (ip), vehicle: saline sonified) 100 % of control; (dose: 50.0 mg/kg/injection, schedule: Q04DX003 (ip), vehicle: saline sonified) 100 % of control; (dose: 66.0 mg/kg/injection, schedule: Q04DX003 (ip), vehicle: saline sonified) 118 % of control. Also, the T/C (dose: 100.0 mg/kg/injection, schedule: Q04DX003 (ip), vehicle: saline sonified) was 113 % of control.
Take `C(/C=C\c1ccccc1)=Nc1ccccc1`: the T/C by setting is: under setting [12], 91 % of control; (dose: 25.0 mg/kg/injection, schedule: Q04DX003 (ip), vehicle: saline) 95 % of control; under setting [9], 95 % of control; (dose: 50.0 mg/kg/injection, schedule: Q04DX003 (ip), vehicle: saline) 100 % of control; (dose: 88.0 mg/kg/injection, schedule: Q01DX009 (ip), vehicle: saline with Tween-80) 105 % of control; under setting [10], 104 % of control. Moreover, the T/C is 104 % of control under setting [2]; 100 % of control (dose: 100.0 mg/kg/injection, schedule: Q04DX003 (ip), vehicle: saline); 110 % of control (dose: 132.0 mg/kg/injection, schedule: Q01DX009 (ip), vehicle: saline with Tween-80); 118 % of control under setting [3]; 110 % of control (dose: 300.0 mg/kg/injection, schedule: Q01DX009 (ip), vehicle: saline with Tween-80); 150 % of control under setting [13]. The T/C under setting [4] was 118 % of control.
Regarding `O=C(Cn1ccc(=O)[nH]c1=O)c1ccc(Cl)s1`, the T/C is 101 % of control and 112 % of control under setting [7]; 102 % of control and 105 % of control under setting [8]; 101 % of control and 115 % of control under setting [13].
For the compound `Cc1onc(-c2ccccc2)c1C(=O)N1CCCN2C(=O)c3ccccc3C21` (stereo unspecified), under setting [8], the T/C was 98 % of control.
Turning to `CS(=O)(=O)NN`, the T/C reads like this: under setting [11], 95 % of control; under setting [12], 95 % of control; (dose: 37.5 mg/kg/injection, schedule: Q04DX003 (ip), vehicle: saline) 100 % of control; under setting [9], 90 % of control; (dose: 75.0 mg/kg/injection, schedule: Q04DX003 (ip), vehicle: saline) 90 % of control.
On to `C[N+]1(C)N=C([O-])N(CCCCCCN2C(=O)[N+](C)(C)N=C2[O-])C1=O`, for which the T/C (dose: 100.0 mg/kg/injection, schedule: Q04DX003 (ip), vehicle: suspension in saline) was 94 % of control; the T/C (dose: 200.0 mg/kg/injection, schedule: Q04DX003 (ip), vehicle: suspension in saline) was 96 % of control; the T/C (dose: 400.0 mg/kg/injection, schedule: Q04DX003 (ip), vehicle: suspension in saline) was 98 % of control.
In the case of `O=C(O)c1ccccc1C(=O)Nc1ccccc1C(F)(F)F`, the T/C is 94 % of control under setting [1], 89 % of control under setting [7] and 121 % of control under setting [8].
For `C[C@]12CCC(=O)C=C1CC[C@@H]1[C@@H]2[C@@H](O)C[C@@]2(C)[C@H]1CC[C@]2(O)C(=O)COC(=O)CCC1CCCC1`, the T/C by setting is: (dose: 12.5 mg/kg/injection, schedule: Q01DX009 (ip), vehicle: Klucel (hydroxypropylcellulose) (HPC)) 118 % of control; (dose: 25.0 mg/kg/injection, schedule: Q01DX009 (ip), vehicle: Klucel (hydroxypropylcellulose) (HPC)) 113 % of control; (dose: 50.0 mg/kg/injection, schedule: Q01DX009 (ip), vehicle: Klucel (hydroxypropylcellulose) (HPC)) 100 % of control; under setting [5], 123 % of control; (dose: 200.0 mg/kg/injection, schedule: Q04DX003 (ip), vehicle: Klucel (hydroxypropylcellulose) (HPC)) 109 % of control; (dose: 400.0 mg/kg/injection, schedule: Q04DX003 (ip), vehicle: Klucel (hydroxypropylcellulose) (HPC)) 109 % of control.
Turning to `NN=C(c1ccccc1)c1ccccc1`, the T/C by setting is: (dose: 20.93 mg/kg/injection, schedule: Q01DX009 (ip), vehicle: Klucel (hydroxypropylcellulose) (HPC)) 86 % of control; (dose: 31.25 mg/kg/injection, schedule: Q04DX003 (ip), vehicle: Klucel (hydroxypropylcellulose) (HPC)) 90 % of control and 104 % of control; (dose: 41.87 mg/kg/injection, schedule: Q01DX009 (ip), vehicle: Klucel (hydroxypropylcellulose) (HPC)) 95 % of control; (dose: 62.5 mg/kg/injection, schedule: Q04DX003 (ip), vehicle: Klucel (hydroxypropylcellulose) (HPC)) 90 % of control; (dose: 125.0 mg/kg/injection, schedule: Q04DX003 (ip), vehicle: Klucel (hydroxypropylcellulose) (HPC)) 90 % of control; (dose: 190.0 mg/kg/injection, schedule: Q04DX003 (ip), vehicle: Klucel (hydroxypropylcellulose) (HPC)) 86 % of control.
Take `COC1C=CC=CC=C1`: the T/C (dose: 15.0 mg/kg/injection, schedule: Q01DX009 (ip), vehicle: saline with Tween-80) is 113 % of control; the T/C (dose: 30.0 mg/kg/injection, schedule: Q01DX009 (ip), vehicle: saline with Tween-80) is 100 % of control; the T/C (dose: 60.0 mg/kg/injection, schedule: Q01DX009 (ip), vehicle: saline with Tween-80) is 113 % of control.
With `COC(=O)C1C2C(C)CC3(CC12C)OCCO3` (stereo unspecified), the T/C under setting [2] is 90 % of control, the T/C under setting [3] is 109 % of control and the T/C under setting [4] is 100 % of control.
For `Cc1cc(C(=O)c2ccccn2)c2cccc(C(F)(F)F)c2n1`, the T/C is 95 % of control under setting [6]; 95 % of control under setting [2]; 86 % of control under setting [8]; 90 % of control under setting [3]; 90 % of control under setting [4].
